Numbering of substitutions follows the chain as printed.
Columns and labels:
[1] = target: T1, hGKRP (0.3 μM)–GK-W99R/W167F/W257F (1 μM) complex, GKRP-P446L (Homo sapiens, UniProt P35557+Q14397, P446L/W167F/W257F/W99R); experiment: Ligand binding by / disassembly of GKRP-P446L–GK-W99R/W167F/W257F complex by TF of hGKRP; details: ligand titration of 3:1 GK–GKRP-P446L complex, 20°C
T1 construct: FLAG; GST (cleaved yes); made in house; host or cells: Escherichia coli
T1 sequence (Q14397 1-625 P446L): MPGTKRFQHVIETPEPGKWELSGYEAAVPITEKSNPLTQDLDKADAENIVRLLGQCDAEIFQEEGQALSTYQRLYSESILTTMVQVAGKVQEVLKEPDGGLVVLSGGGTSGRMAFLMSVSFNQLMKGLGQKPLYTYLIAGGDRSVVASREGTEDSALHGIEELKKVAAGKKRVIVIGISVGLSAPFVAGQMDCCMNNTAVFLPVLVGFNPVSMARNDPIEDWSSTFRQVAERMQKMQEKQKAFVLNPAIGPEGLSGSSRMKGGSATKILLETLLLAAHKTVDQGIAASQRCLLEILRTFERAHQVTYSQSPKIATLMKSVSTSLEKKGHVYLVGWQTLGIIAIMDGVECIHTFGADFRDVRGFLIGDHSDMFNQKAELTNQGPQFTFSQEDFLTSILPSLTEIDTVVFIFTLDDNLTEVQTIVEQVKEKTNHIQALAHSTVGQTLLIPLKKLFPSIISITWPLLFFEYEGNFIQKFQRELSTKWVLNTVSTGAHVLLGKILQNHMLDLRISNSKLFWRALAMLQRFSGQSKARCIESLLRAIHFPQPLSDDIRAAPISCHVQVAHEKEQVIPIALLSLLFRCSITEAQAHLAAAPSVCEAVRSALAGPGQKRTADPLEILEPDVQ
T1 sequence (P35557 1-465 W99R/W167F/W257F): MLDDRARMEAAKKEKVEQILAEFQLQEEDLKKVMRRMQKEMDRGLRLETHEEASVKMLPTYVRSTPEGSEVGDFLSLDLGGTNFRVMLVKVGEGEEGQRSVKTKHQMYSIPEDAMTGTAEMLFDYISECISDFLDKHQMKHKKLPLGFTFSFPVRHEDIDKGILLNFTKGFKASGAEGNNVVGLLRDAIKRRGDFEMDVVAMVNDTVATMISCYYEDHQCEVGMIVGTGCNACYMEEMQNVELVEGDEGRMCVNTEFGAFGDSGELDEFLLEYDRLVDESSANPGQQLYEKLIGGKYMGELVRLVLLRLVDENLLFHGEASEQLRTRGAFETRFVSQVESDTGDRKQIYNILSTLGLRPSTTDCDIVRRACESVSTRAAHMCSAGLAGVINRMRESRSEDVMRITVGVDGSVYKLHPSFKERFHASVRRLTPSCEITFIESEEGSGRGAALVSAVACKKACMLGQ
Protocol: Spectra were measured with a Fluorolog-3-21 Jobin-Yvon Spex Instrument SA equipped with a 450 W Xenon lamp for excitation and a cooled R2658P Hamamatsu photomultiplier tube for detection. For all measurements, 90° geometry was employed and 295 nm excitation wavelengths were used to observe fluorescence emission in the 300–500 nm range. For TF, spectra slit width was set to provide a bandpath of 3 nm for excitation and 3 nm for emission. Spectra were corrected for instrumental response using Spex instrument software. A thermostatically controlled cell holder maintained sample temperature at 20°C. A thermocoupler was used to measure sample temperature. The buffer used contained 20 mM phosphate, 50 mM KCl, 1 mM EDTA and 1 mM DTT (pH 7.2).
Fluorescence data were obtained via the stepwise addition of the appropriate amount of non-fluorescent GK-W99R/W167F/W257F to GKRP in a fluorescence cuvette. […] The change in GKRP protein fluorescence during titration was also measured using time-dependent scans. A manual procedure was used such that a typical titration with 10–12 additions required 20–25 min to perform. The same buffer as described above was routinely used unless stated otherwise. The bandpath was 0.5 nm at 295 nm for excitation and 12 nm at 340 nm for emission. […] For some graphical presentations the linear form of the Hill equation was used: log[F/(Fsat−F)]=H log x−H log KD [46].

[2] = target: T2, GK-T65W/W99R/W167F/W257F (Homo sapiens, UniProt P35557, T65W/W167F/W257F/W99R); experiment: GKA and glucose binding by GK-T65W/W99R/W167F/W257F measured by TF; details: 25°C
T2 construct: GST (cleaved yes); made in house; host or cells: Escherichia coli
T2 sequence (P35557 1-465 T65W/W99R/W167F/W257F): T1 sequence (P35557 1-465 W99R/W167F/W257F) with T65W

[3] = D-glucose titration in the presence of GKA (20 μM)

H [1]: 1
H [2, 3]: 1
Kd [2, 3]: 0.74 mM
H ([2]; D-glucose titration): 1
Kd ([2]; D-glucose titration): 4.6 mM
Compound: OC[C@H]1OC(O)[C@H](O)[C@@H](O)[C@@H]1O (stereo partly drawn) [D-Glucose, D-glucose]
